For orientation: MIC means the lowest concentration that inhibits growth of the organism.

SMILES strings stand for the structures. In brackets after ≈: the same amount, converted by molar mass.

Among the data in ChEMBL document CHEMBL3393049, “Syntheses and Antituberculosis Activity of 1,3-Benzothiazinone Sulfoxide and Sulfone Derived from BTZ043” (ACS Med Chem Lett, 2015) are MIC values, retold here.

The subject of the assay is Mycobacterium tuberculosis variant bovis BCG. As to the kind of experiment: Antimycobacterial activity against Mycobacterium bovis BCG ATCC 35734 assessed as reduction in bacterial growth incubated for 6 days by MABA method. Format: functional. The conditions noted are these: ATCC 35734, 144 h. (In general: Resazurin is reduced to fluorescent resorufin, in cell work by metabolically active cells.)
As for `C[C@H]1COC2(CCN(c3nc(=O)c4cc(C(F)(F)F)cc([N+](=O)[O-])c4[s+]3[O-])CC2)O1` (stereo not given in full), the MIC came out at 0.21 µM (≈ 0.094 µg/mL). Consider `CO[C@H]1/C=C/O[C@@]2(C)Oc3c(C)c(O)c4c(O)c(c(/C=N/N5CCN(C)CC5)c(O)c4c3C2=O)NC(=O)/C(C)=C\C=C\[C@H](C)[C@H](O)[C@@H](C)[C@@H](O)[C@@H](C)[C@H](OC(C)=O)[C@@H]1C` [RIFAMPIN], for which the minimal inhibitory concentration (MIC) was determined as 0.02 µM (≈ 0.0165 µg/mL). With `NNC(=O)c1ccncc1` [ISONIAZID], the MIC amounted to 0.5 µM (≈ 0.0686 µg/mL). Take `C[C@H]1COC2(CCN(C3=NC(=O)c4cc(C(F)(F)F)cc([N+](=O)[O-])c4S3(=O)=O)CC2)O1`: the MIC was above 1 µM. The value for `C[C@H]1COC2(CCN(c3nc(=O)c4cc(C(F)(F)F)cc([N+](=O)[O-])c4s3)CC2)O1` [BTZ-043] was below 0.02 µM.
